Results taken from patent publication US8765107B2, “Process for straightening keratin fibres with a heating means and denaturing agents” (L'Oreal, priority 2006, dated 2014).

Assay: hair relaxing with resorcinol under the conditions of M. Wong et al.
Conditions: resorcinol at a concentration of 40% and at a pH of 7
Excerpt: The use of resorcinol at a concentration of 40% and at a pH of 7 for relaxing the hair has been reported by M. Wong et al.: M. Wong, G. Vis-surel, and J. Epps J. Soc. Cosmet. Chem. (1994), 45, 347-352.

Oc1cccc(O)c1 [resorcinol]
relaxing of the hair: do not relax it, but lead, at the very best, to slight uncurling
